Read-outs that look alike come from different tables or passages of the source.
Columns and labels:
[1] = Caco-2 homogenate S9 stability; format: in vitro ADME; details: incubation with Caco-2 homogenate for 1 hour, 5 μM, 37° C.
Experimental: Tissue homogenates and plasma samples were obtained from commercial sources (Pel-Freez Biologicals, Rogers, Ark., and GenTest Corporation, Woburn, Mass.). Stability of prodrugs toward the specific enzyme aminopeptidase was also evaluated by incubation with the purified enzyme. Experimental conditions used for the in vitro studies were as follows. Each preparation was incubated with test compound at 37° C. for one hour. Aliquots (50 μL) were removed at 0, 30, and 60 min and quenched with 0.1% trifluoroacetic acid in acetonitrile. Samples were then centrifuged and analyzed for the presence of prodrug and released gabapentin by LC/MS/MS as described below.
Concentrations of prodrug or gabapentin in tissue extracts were determined by direct injection onto an API 2000 LC/MS/MS equipped with an Agilent 1100 binary pump and autosampler. Separation was achieved using a 3.5 μm Zorbax Ellipse XDB-C8 4.4×150 mm column heated to 45° C. during the analysis. The mobile phases were: 0.1% formic acid in water (A) and 0.1% formic acid in acetonitrile (B). The gradient condition was: 2% B for 0.5 min, increasing to 90% B in 2.0 min, maintained for 2.5 min and returning to 2% B for 2 min. A TurboIonSpray source was used on the API 2000. The analysis was performed in the positive ion mode and MRM transitions of 172.0/137.2 were used in the analysis of gabapentin (2). Ten microliters of the sample extracts were injected. Peaks were integrated using Analyst quantitation software. The method was linear for (2) over the concentration range 0.002 to 2.5 μg/mL respectively.
Caco-2 Homogenate S9 Stability: Caco-2 cells were grown for 21 days prior to harvesting. Culture medium was removed and cell monolayers were rinsed and scraped off into ice-cold 10 mM sodium phosphate/0.15 M potassium chloride, pH 7.4. Cells were lysed by sonication at 4° C. using a probe sonicator. Lysed cells were then transferred into 1.5 mL centrifuge vials and centrifuged at 9000 g for 20 min at 4° C. The resulting supernatant (Caco-2 cell homogenate S9 fraction) was aliquoted into 0.5 mL vials and stored at −80° C. until used.
For stability studies, prodrug (5 μM) was incubated in Caco-2 homogenate S9 fraction (0.5 mg protein per mL) for 60 min at 37° C. Concentrations of intact prodrug and released drug were determined at zero time and 60 minutes using LC/MS/MS.

[2] = rat; for Cmax PD (Cmax of prodrug in plasma): oral prodrug 25 mg-equivalents of gabapentin per kg; for Cmax of gabapentin in plasma: single oral dose 25 mg/kg gabapentin or 25 mg-equivalents of gabapentin per kg
Experimental: The pharmacokinetics of the prodrugs prepared in Examples 1 and 3 were examined in rats. […] Animals were fasted overnight prior to dosing and until 4 hours post-dosing. Serial blood samples were obtained over 24 hours following dosing and blood was processed for plasma by centrifugation. Plasma samples were stored at −80° C. until analyzed.
Plasma (50 μL) was precipitated by addition of […] of methanol and supernatant was injected directly onto the LC/MS/MS system. […] Following oral administration of gabapentin prodrugs, concentrations of prodrug and gabapentin in plasma were monitored over 24 hours.

[3] = rat, oral and i.v. dosing of prodrug
[4] = monkey; for increase in gabapentin exposure (as measured by AUC) on a 7.5-fold increase in dose / AUC G (AUC of gabapentin) / Cmax G (Cmax of gabapentin): oral; for increase in gabapentin exposure (as measured by AUC) on a 7.5-fold increase in dose: 10 to 75 mg-eq/kg
Experimental: The prodrug was administered orally to four adult male monkeys (approximate body weight of 6.5 kg) via an oral nasogastric tubeas solutions in water or PEG 400. The dose was 10 or 75 mg-equivalents of gabapentin per kg body weight. Animals were fasted overnight before the study and for 4 hours post-dosing. Blood samples (1.0 mL) were obtained via femoral or cephalic venipuncture at intervals over 48 hours after oral dosing. Blood was processed immediately for plasma and plasma was frozen at −80° C. until analyzed. […] Oral bioavailability was determined by comparison of area under the gabapentin concentration versus time curve (AUC) following oral administration of prodrug or intravenous administration of an equimolar dose of gabapentin hydrochloride.

PEPT2 = details: tested at 1 mM on oocytes expressing PEPT2; normalised to 1 mM glycyl-sarcosine
Experimental: (§1) Rat and human PEPT1 and PEPT2 expressing CHO cell lines were prepared as described in PCT Application WO01/20331. Gabapentin-containing dipeptides were evaluated for interaction with the peptide transporters using a radiolabeled substrate uptake assay in a competitive inhibition format, as described in PCT Application WO01/20331. Transport-induced currents were also measured in Xenopus oocytes transfected with rat and human PEPT1 and PEPT2.
(§2) RNA preparation: Rat and human PEPT1 and PEPT2 transporter cDNAs were subdcloned into a modified pGEM plasmid that contains 5′ and 3′ untranslated sequences from the Xenopus β-actin gene. These sequences increase RNA stability and protein expression. Plasmid cDNA was linearized and used as template for in vitro transcription (Epicentre Technologies transcription kit, 4:1 methylated:non-methylated GTP).
(§3) Xenopus oocyte isolation. Xenopus laevis frogs were anesthetized by immersion in Tricaine ([…] in deionized water) for 15 min. […]
(§4) Electrophysiology measurements. Transport currents were measured 2-14 days after injection, using a standard two-electrode electrophysiology set-up (Geneclamp 500 amplifier, Digidata 1320/PCLAMP software and ADInstruments hardware and software were used for signal acquisition).

PEPT1 = details: tested at 1 mM on oocytes expressing PEPT1; normalised to 1 mM glycyl-sarcosine
Experimental: as §1, §2, §3, §4

[5] = monkey, sodium salt, 10 mg-equivalents of gabapentin per kg

N[C@@H](Cc1cccc2ccccc12)C(=O)NCC1(CC(=O)O)CCCCC1 [1l, L-1-Naphthylalanine-Gabapentin]
% of prodrug surviving intact [1]: 29%
Cmax PD (Cmax of prodrug in plasma) [2]: 500 ng/mL

N[C@@H](CO)C(=O)NCC1(CC(=O)O)CCCCC1 [1ax, L-Serine-Gabapentin]
fraction absorbed intact following oral administration [3]: 15-20%
increase in gabapentin exposure (as measured by AUC) on a 7.5-fold increase in dose [4]: 5.1 fold

N[C@@H](Cc1ccccc1F)C(=O)NCC1(CC(=O)O)CCCCC1 [1ab, L-2-Fluorophenylalanine-Gabapentin]
fraction absorbed intact following oral administration [3]: about 60%

N#Cc1cccc(C[C@H](N)C(=O)NCC2(CC(=O)O)CCCCC2)c1 [1al, L-3-Cyanophenylalanine-Gabapentin]
% of prodrug surviving intact [1]: 46%
Cmax PD (Cmax of prodrug in plasma) [2]: 600 ng/mL

NC(Cc1ccc(F)cc1F)C(=O)NCC1(CC(=O)O)CCCCC1 [1ap, D, L-2,4-Difluorophenylalanine-Gabapentin]
% of prodrug surviving intact [1]: 90%
Cmax PD (Cmax of prodrug in plasma) [2]: 278000 ng/mL

L-Tyrosine-(O-2-Bromobenzyloxycarbonyl)-Gabapentin [4d]
% of prodrug surviving intact [1]: 3%

CC(C)C[C@H](CNC(=O)[C@@H](N)Cc1ccc(Br)cc1)CC(=O)O [compound 5, L-4-Bromophenylalanine-Pregabalin]
PEPT-specific currents above background (PEPT2): at least 5 % of Imax for Gly-Sar
PEPT-specific currents above background (PEPT1): at least 5 % of Imax for Gly-Sar

N[C@@H](Cc1cc(F)cc(F)c1)C(=O)NCC1(CC(=O)O)CCCCC1 [1ao, L-3,5-Difluorophenylalanine-Gabapentin]
% of prodrug surviving intact [1]: 48%
Cmax PD (Cmax of prodrug in plasma) [2]: 2900 ng/mL

N[C@@H](Cc1ccc(C(F)(F)F)cc1)C(=O)NCC1(CC(=O)O)CCCCC1 [1aa, L-4-Trifluoromethylphenylalanine-Gabapentin]
% of prodrug surviving intact [1]: 97%
Cmax PD (Cmax of prodrug in plasma) [2]: 30000 ng/mL

N[C@@H](Cc1ccc(Br)cc1)C(=O)NCC1(CC(=O)O)CCCCC1 [1ah, L-4-Bromophenylalanine-Gabapentin]
% of prodrug surviving intact [1]: 79%
Cmax PD (Cmax of prodrug in plasma) [2]: 103000 ng/mL
Cmax of gabapentin in plasma [2]: 6100 ng/mL
AUC G (AUC of gabapentin) ([5]; oral): 29100 ± 3500 ng·h/mL
AUC PD (AUC of prodrug) ([5]; oral): 18900 ± 6500 ng·h/mL
Cmax G (Cmax of gabapentin) ([5]; oral): 3800 ± 1100 ng/mL
Cmax PD (Cmax of prodrug) ([5]; oral): 14900 ± 5300 ng/mL
F (oral bioavailability as gabapentin) [5]: 49.1±6.8%

NCC1(CC(=O)O)CCCCC1 [compound 2, gabapentin]
F (oral bioavailability as gabapentin) ([4]; 10 mg-eq/kg): 53.9±17.3%
F (oral bioavailability as gabapentin) ([4]; 75 mg-eq/kg): 22.9±1.1%
AUC G (AUC of gabapentin) ([4]; 10 mg-eq/kg): 32100 ± 10400 ng·h/mL
Cmax G (Cmax of gabapentin) ([4]; 10 mg-eq/kg): 3700 ± 1600 ng/mL
AUC G (AUC of gabapentin) ([4]; 75 mg-eq/kg): 102000 ± 4900 ng·h/mL
Cmax G (Cmax of gabapentin) ([4]; 75 mg-eq/kg): 10800 ± 1300 ng/mL
increase in gabapentin exposure (as measured by AUC) on a 7.5-fold increase in dose [4]: 3.2 fold
Cmax of gabapentin in plasma [2]: 10300 ng/mL

N#Cc1ccc(C[C@H](N)C(=O)NCC2(CC(=O)O)CCCCC2)cc1 [1am, L-4-Cyanophenylalanine-Gabapentin]
% of prodrug surviving intact [1]: 90%
Cmax PD (Cmax of prodrug in plasma) [2]: 22400 ng/mL
